Data reported in patent US20240317756A1, “INHIBITORS OF BRUTON'S TYROSINE KINASE” (Pharmacyclics LLC, priority 2006, published 2024).

Assays:
ITK = ITK (Homo sapiens (Human), UniProt Q08881); test: in vitro HotSpot kinase assay, ITK; type: biochemical; conditions: Table 2, 1 uM ATP, one hour incubation with inhibitor
lymphoma cell line DOHH2 = test: DOHH2 cell proliferation assay (Alamar Blue); type: cell-based
Protocol: After 72 hours, cell number was measured using Alamar Blue using manufacturer's protocol. A dilution series of untreated cells was run in parallel to verify that the Alamar Blue assay reliably reflected cell number and that growth conditions were not limiting. […] GI50 values were confirmed in two or more separate experiments for each cell line.
Analogs are generated that are Btk inhibitors and that are cytotoxic to the lymphoma cell line DOHH2. For the DOHH2 cell proliferation assay, cells were seeded in 96-well plates in standard growth media (RPMI+10% fetal calf serum) and compounds were added in a 9-point dilution series ranging from 10 uM to 0.04 uM with DMSO at 0.1% final concentration in all wells. After 72 hours, cell number was measured using Alamar Blue using manufacturer's protocol. A dilution series of untreated cells was run in parallel to verify that the Alamar Blue assay reliably reflected cell number and that growth conditions were not limiting.

BTK = BTK (Homo sapiens (Human), UniProt Q06187); test: in vitro HotSpot kinase assay, BTK; type: biochemical; conditions: Table 2, 1 uM ATP, one hour incubation with inhibitor
LCK = LCK (Homo sapiens (Human), UniProt P06239); test: in vitro HotSpot kinase assay, LCK; type: biochemical; conditions: Table 2, 1 uM ATP, one hour incubation with inhibitor
EGFR = EGFR (Homo sapiens (Human), UniProt P00533); test: in vitro HotSpot kinase assay, EGFR; type: biochemical; conditions: Table 2, 1 uM ATP, one hour incubation with inhibitor
JAK3 = JAK3 (Homo sapiens (Human), UniProt P52333); test: in vitro HotSpot kinase assay, JAK3; type: biochemical; conditions: Table 2, 1 uM ATP, one hour incubation with inhibitor
[1] = glutathione binding assay; conditions: 5 mM glutathione, 10 μM Btk inhibitor, room temperature, HPLC
Protocol: A calculated value (e.g (1/Btk IC50)/Glutathione conjugation rate) as shown in the Table 2) is used to compare compounds for their ratio between potency at inhibiting their target and their non-specific binding to other SH groups, such as those in glutathione. […] Calculated ratios such as these are used to quantitatively compare different compounds and select compounds for further study.
For the glutathione binding assays, 5 mM glutathione, 10 μM Btk inhibitor in DMSO (10 μL) and 6 equivalents of N′N′ Diisopropyl ethyl amine were combined in 1 mL potassium phosphate buffer. The mixture was incubated for 0, 15, 60 minutes at room temperature and the reaction was stopped with 10 equivalents of formic acid. 50 μL of each reaction mixture was injected on HPLC (Mobil Phase A: 0.2% formic acid in water, Mobile Phase B: 0.2% formic acid in acetonitrile, HPLC Column: Metasil Basic 3μ, 150×4.6 mm, 10% B, Gradient: 10% to 90% B, Detection: UV/Vis […]). Rate of reaction was reported as nmole GSH conjugate conversion per minute from the normalized ratio for area under the curve from HPLC chromatograms for both GSH conjugate and the parent.

Sequence of LCK (P06239 whole entry, species assumed): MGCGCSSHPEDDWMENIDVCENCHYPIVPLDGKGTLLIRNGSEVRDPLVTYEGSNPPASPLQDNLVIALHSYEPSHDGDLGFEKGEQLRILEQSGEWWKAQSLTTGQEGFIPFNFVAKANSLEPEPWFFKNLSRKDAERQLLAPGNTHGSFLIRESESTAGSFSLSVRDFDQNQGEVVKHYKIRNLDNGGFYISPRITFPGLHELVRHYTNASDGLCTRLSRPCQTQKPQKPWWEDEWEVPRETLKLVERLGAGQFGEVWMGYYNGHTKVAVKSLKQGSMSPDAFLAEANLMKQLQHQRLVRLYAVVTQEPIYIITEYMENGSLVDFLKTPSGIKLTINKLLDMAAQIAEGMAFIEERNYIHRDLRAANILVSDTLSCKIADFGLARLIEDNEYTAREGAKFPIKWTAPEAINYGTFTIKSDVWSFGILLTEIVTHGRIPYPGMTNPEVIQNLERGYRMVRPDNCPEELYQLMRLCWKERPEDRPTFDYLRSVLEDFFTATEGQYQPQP
Sequence of JAK3 (P52333 whole entry, species assumed): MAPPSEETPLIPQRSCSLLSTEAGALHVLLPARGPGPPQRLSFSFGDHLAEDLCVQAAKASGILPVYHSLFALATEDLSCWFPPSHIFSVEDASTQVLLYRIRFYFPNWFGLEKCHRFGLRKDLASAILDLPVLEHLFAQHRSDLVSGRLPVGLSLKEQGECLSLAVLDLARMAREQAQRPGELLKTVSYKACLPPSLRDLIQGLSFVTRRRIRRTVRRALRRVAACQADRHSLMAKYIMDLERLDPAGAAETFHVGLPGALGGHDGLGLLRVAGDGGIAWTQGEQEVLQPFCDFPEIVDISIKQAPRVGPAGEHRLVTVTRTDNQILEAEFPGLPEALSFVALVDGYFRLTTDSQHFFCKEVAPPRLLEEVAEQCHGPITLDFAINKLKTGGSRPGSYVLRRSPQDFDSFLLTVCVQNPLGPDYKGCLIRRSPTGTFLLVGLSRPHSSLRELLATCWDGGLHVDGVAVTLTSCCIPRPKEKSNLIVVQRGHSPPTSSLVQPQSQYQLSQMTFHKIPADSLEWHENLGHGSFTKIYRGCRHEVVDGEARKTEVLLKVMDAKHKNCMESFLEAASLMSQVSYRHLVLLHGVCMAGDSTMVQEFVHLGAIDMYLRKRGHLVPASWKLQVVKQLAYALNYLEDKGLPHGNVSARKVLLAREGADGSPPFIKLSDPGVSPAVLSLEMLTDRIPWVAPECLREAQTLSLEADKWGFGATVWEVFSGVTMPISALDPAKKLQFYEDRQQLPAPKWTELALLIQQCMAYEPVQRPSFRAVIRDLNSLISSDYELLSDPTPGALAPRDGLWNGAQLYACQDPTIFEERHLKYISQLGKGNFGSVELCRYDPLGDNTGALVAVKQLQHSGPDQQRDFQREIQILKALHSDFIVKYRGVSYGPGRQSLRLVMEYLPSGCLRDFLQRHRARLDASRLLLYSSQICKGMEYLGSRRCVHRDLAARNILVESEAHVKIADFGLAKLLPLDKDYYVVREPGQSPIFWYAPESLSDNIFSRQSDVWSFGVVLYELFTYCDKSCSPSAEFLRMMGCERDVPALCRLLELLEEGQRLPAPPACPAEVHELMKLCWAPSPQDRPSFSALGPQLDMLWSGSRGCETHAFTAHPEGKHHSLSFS
Sequence of ITK (Q08881 whole entry, species assumed): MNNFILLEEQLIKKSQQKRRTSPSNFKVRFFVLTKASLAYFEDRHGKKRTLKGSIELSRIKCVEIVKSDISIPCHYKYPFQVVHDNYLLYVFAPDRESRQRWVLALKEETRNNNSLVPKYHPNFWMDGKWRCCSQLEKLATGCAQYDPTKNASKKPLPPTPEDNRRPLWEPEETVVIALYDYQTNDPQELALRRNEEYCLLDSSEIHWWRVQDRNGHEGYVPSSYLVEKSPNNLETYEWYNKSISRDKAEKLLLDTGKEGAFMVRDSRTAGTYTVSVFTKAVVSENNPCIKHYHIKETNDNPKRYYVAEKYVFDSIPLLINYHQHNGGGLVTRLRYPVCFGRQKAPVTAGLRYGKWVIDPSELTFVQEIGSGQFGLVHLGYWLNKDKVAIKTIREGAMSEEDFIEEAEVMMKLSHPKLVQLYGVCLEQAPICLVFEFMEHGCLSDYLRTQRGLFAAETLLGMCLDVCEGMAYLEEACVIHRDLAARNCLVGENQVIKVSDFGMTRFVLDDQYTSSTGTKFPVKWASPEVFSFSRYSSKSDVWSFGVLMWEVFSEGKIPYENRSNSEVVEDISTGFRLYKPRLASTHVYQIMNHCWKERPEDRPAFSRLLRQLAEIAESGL
Sequence of BTK (Q06187 whole entry): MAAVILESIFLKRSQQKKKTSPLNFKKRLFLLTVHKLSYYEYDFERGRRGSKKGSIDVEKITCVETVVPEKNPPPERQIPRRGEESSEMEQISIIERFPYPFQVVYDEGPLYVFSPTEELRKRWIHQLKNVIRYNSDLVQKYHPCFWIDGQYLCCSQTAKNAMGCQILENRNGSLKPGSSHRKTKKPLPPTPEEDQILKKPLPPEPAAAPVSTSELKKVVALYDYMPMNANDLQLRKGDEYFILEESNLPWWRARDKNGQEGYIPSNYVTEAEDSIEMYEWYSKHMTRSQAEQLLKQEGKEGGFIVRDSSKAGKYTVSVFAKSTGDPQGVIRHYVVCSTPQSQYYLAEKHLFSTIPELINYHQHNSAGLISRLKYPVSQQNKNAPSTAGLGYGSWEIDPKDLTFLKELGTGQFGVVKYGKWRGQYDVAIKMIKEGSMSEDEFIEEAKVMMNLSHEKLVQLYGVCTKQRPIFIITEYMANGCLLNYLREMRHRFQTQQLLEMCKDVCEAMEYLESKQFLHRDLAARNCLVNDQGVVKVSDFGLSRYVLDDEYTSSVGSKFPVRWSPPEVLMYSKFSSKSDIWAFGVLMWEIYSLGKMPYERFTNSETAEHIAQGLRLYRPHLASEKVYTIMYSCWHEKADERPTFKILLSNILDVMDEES

Row | Compound | IC50 (ITK) [nM] | GI50 (lymphoma cell line DOHH2; Homo sapiens, DOHH-2, 72 hours) [nM] | IC50 (BTK) [nM] | IC50 (LCK) [nM] | IC50 (EGFR) [nM] | IC50 (JAK3) [µM] | GI50 (lymphoma cell line DOHH2; 72 hours) [nM] | Glutathione Conj Rate [1] [nmol/min]
1 | C=CC(=O)N1CCC[C@@H]1Cn1nc(-c2ccc(Oc3ccccc3)cc2)c2c(N)ncnc21 [Compound 13, 1-((R)-2-((4-amino-3-(4-phenoxyphenyl)-1H-pyrazolo[3,4-d]pyrimidin-1-yl)methyl)pyrrolidin-1-yl)prop-2-en-1-one] | 3010 | 240 | 0.67 | 1.56 | 18.8 | 13 |  | 
2 | Nc1ncnc2c1c(-c1ccc(Oc3ccccc3)cc1)nn2C[C@@H]1CCCN1C(=O)/C=C/CN1CCOCC1 [Compound 21] | > 10000 |  | 4.15 | 1350 | 6240 | > 10 | 1530 | 
3 | CN(C)C/C=C/C(=O)N1CCC[C@@H]1Cn1nc(-c2ccc(Oc3ccccc3)cc2)c2c(N)ncnc21 [Compound 11, (E)-1-((R)-2-((4-amino-3-(4-phenoxyphenyl)-1H-pyrazolo[3,4-d]pyrimidin-1-yl)methyl)pyrolidin-1-yl)-4-(dimethylamino)but-2-en-1-one] | 6890 | > 10000 | 0.92 | 2.43 | 18.9 | > 10 |  | 0.004525
4 | Nc1ncnc2c1c(-c1ccc(Oc3ccccc3)cc1)nn2C1CCN(C(=O)/C=C/CN2CCOCC2)CC1 [Compound 20] | 7990 |  | 4.07 | 98.6 | 304 | > 10 | 390 | 
5 | Nc1ncnc2c1c(-c1ccc(Oc3ccccc3)cc1)nn2C1CCCN(C(=O)/C=C/CN2CCOCC2)C1 (stereo not drawn) [Compound 5, (E)-1-(3-(4-amino-3-(4-phenoxyphenyl)-1H-pyrazolo[3,4-d]pyrimidin-1-yl)piperidin-1-yl)-4-morpholinobut-2-en-1-one] |  |  | 5.6 |  | 326 |  |  | 0.004
6 | CC#CC(=O)N[C@H]1CC[C@@H](n2nc(-c3ccc(Oc4ccccc4)cc3)c3c(N)ncnc32)CC1 [Compound 22, N-((1s,4s)-4-(4-amino-3-(4-phenoxyphenyl)-1H-pyrazolo[3,4-d]pyrimidin-1-yl)cyclohexyl)but-2-ynamide] | 3690 |  | 1.57 | 22.1 | 156 | > 10 | < 40 | 0.014
7 | (E)-4-(N-(2-hydroxyethyl)-N-methylamino)-1-(3-(4-phenoxyphenyl)-1H-pyrazolo[3,4-d]pyrimidin-1-yl)piperidin-1-yl)but-2-en-1-one [Compound 3] |  |  | 21 |  | 74.5 |  |  | 
8 | C=CC(=O)NCCn1nc(-c2ccc(Oc3ccccc3)cc2)c2c(N)ncnc21 [Compound 23, N-(2-(4-amino-3-(4-phenoxyphenyl)-1H-pyrazolo[3,4-d]pyrimidin-1-yl)ethyl)acrylamide] | 830 | 110 | 0.32 | 208 | 70.5 | 3.31 |  | 
9 | Nc1ncnc2c1c(-c1ccc(Oc3ccccc3)cc1)nn2[C@H]1CC[C@@H](NC(=O)/C=C/CN2CCOCC2)CC1 [Compound 25, (E)-N-((1s,4s)-4-(4-amino-3-(4-phenoxyphenyl)-1H-pyrazolo[3,4-d]pyrimidin-1-yl)cyclohexyl)-4-morpholinobut-2-enamide] | > 10000 |  | 3.48 | 25.8 | 273 | > 10 | 50 | 
10 | CC#CC(=O)N1CCC[C@@H]1Cn1nc(-c2ccc(Oc3ccccc3)cc2)c2c(N)ncnc21 [Compound 15, 1((R)-2-((4-amino-3-(4-phenoxyphenyl)-1H-pyrazolo[3,4-d]pyrimidin-1-yl)methyl)pyrrolidin-1-yl)but-2-yn-1-one] | 21100 | 590 | 4.16 | 5.9 | 289 | > 10 |  | 
11 | CN(C)C/C=C/C(=O)N[C@H]1CC[C@H](n2nc(-c3ccc(Oc4ccccc4)cc3)c3c(N)ncnc32)CC1 [Compound 18] | 2540 |  | 1.38 | 0.76 | 22.5 | > 10 | < 30 | 
12 | C=CC(=O)N1CCC(n2nc(-c3ccc(Oc4ccccc4)cc3)c3c(N)ncnc32)CC1 [Compound 6] |  |  | 3.1 |  |  |  |  | 0.39
13 | C=CC(=O)N(C)CCn1nc(-c2ccc(Oc3ccccc3)cc2)c2c(N)ncnc21 [Compound 19, N-(2-(4-amino-3-(4-phenoxyphenyl)-1H-pyrazolo[3,4-d]pyrimidin-1-yl)ethyl)-N-methylacrylamide] | 535 | 690 | 1.58 | 6.62 |  | 6 |  | 
14 | CC#CC(=O)N1CCC[C@@H](n2nc(-c3ccc(Oc4ccccc4)cc3)c3c(N)ncnc32)C1 [Compound 17, 1-((R)-3-(4-amino-3-(4-phenoxyphenyl)-1H-pyrazolo[3,4-d]pyrimidin-1-yl)piperidin-1-yl)but-2-yn-1-one] | 2330 | 210 | 2 | 2.07 | 435 | > 10 |  | 0.0243
15 | C=CC(=O)N[C@H]1CC[C@H](n2nc(-c3ccc(Oc4ccccc4)cc3)c3c(N)ncnc32)CC1 [Compound 10, N-((1r,4r)-4-(4-amino-3-(4-phenoxyphenyl)-1H-pyrazolo[3,4-d]pyrimidin-1-yl)cyclohexyl)acrylamide] | 1950 | < 30 |  |  |  | > 10 |  | 
16 | Nc1ncnc2c1c(-c1ccc(Oc3ccccc3)cc1)nn2[C@@H]1CCCN(C(=O)/C=C/CN2CCOCC2)C1 [Compound 24, (E)-1-((R)-3-(4-amino-3-(4-phenoxyphenyl)-1H-pyrazolo[3,4-d]pyrimidin-1-yl)piperidin-1-yl)-4-morpholinobut-2-en-1-one] | 476 | 440 | 0.89 | 235 | 384 | 9.08 |  | 
17 | CC#CC(=O)N1CCC[C@H]1Cn1nc(-c2ccc(Oc3ccccc3)cc2)c2c(N)ncnc21 [Compound 16, 1-((S)-2-((4-amino-3-(4-phenoxyphenyl)-1H-pyrazolo[3,4-d]pyrimidin-1-yl)methyl)pyrrolidin-1-yl)but-2-yn-1-one] | > 10000 | 210 | 3.14 | 3.82 | 2810 | > 10 |  | 
18 | C=CC(=O)N1CCC[C@H]1Cn1nc(-c2ccc(Oc3ccccc3)cc2)c2c(N)ncnc21 [Compound 14, 1-((S)-2-((4-amino-3-(4-phenoxyphenyl)-1H-pyrazolo[3,4-d]pyrimidin-1-yl)methyl)pyrrolidin-1-yl)prop-2-en-1-one] | 592 | 370 | 0.39 | 9.24 | 2.3 | 1.46 |  | 
